Reference: paper PMC7483469, “The overexpression of OsACBP5 protects transgenic rice against necrotrophic, hemibiotrophic and biotrophic pathogens” (Scientific Reports, 2020)

Biological target: T1, (His)6-OsACBP5; rOsACBP5 (Oryza sativa, UniProt Q10P83)
T1 construct: gene ACBP5; N-terminal (His)6-tag, plasmid pOS543 (from pRSETA), E. coli BL21(DE3) Star pLysS, soluble fraction, HisTrap
T1 sequence (Q10P83 32-569): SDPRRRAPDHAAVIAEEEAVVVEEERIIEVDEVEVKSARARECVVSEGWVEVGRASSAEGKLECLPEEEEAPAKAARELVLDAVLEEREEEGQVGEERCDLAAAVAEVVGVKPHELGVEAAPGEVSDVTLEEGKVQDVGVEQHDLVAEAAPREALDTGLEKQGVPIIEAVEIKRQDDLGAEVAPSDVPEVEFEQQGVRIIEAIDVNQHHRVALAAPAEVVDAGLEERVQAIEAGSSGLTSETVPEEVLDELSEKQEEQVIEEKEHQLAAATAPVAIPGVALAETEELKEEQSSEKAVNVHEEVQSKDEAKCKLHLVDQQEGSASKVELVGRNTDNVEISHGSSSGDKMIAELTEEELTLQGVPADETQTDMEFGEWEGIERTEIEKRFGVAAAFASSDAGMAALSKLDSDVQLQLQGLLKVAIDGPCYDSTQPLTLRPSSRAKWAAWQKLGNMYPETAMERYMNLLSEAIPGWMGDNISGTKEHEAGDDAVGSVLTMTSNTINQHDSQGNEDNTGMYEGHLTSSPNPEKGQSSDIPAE
Assay: isothermal titration calorimetry
Format: binding

CC/C=C\C/C=C\C/C=C\CCCCCCCC(=O)SCCNC(=O)CCNC(=O)[C@H](O)C(C)(C)COP(=O)(O)OP(=O)(O)OC[C@H]1O[C@@H](n2cnc3c(N)ncnc32)[C@H](O)[C@@H]1OP(=O)(O)O [18:3-acyl-CoA ester]
Kd: 59.5 nM
